{"source": "patent US20090149387A1", "about": "“Use of GLP-1 Peptides” (Novo Nordisk A/S, priority 1996, published 2009)", "key": {"rats": {"tested_on": "rats", "settings": "Tang-Christensen et al. 1996, route not stated; cited from earlier work"}, "Mice [1]": {"tested_on": "Mice", "test": "Appetite suppression in mice: sucrose consumption measured immediately after intraperitoneal injection (Example 2)", "format": "in vivo", "settings": "85 micrograms (equivalent to 3.4 mg/kg) intraperitoneally, tested immediately after injection, 10 minute period, versus vehicle, p-value 0.002", "description": "Mice were deprived of their normal food for two days and given free access to a 20% sucrose solution on the first day of food deprivation. After the two day food deprivation period, the mice were injected intraperitoneally with 0.5 ml of a solution containing the test substance. Immediately after injection, individual mice were placed in one of eight 15 cm square test boxes with a stainless steel grid floor and a glass drinking tube which projected into the box. […] Consumption of the sucrose solution was measured over a 10 minute period by electronically recording the total amount of contact with the sucrose solution during the test session. The degree of appetite suppression produced by a given test substance was determined by statistical comparison of the mean duration of sucrose consumption by control (vehicle treated) mice with that of mice treated with a test substance. The degree of appetite suppression in a treated group of mice was expressed as percent difference between the test and control group's response duration means. […]"}, "Mice [2]": {"tested_on": "Mice", "test": "Appetite suppression in mice by subcutaneous synthetic GLP-1(7-36)amide: Complan consumption (Example 4)", "format": "in vivo", "settings": "p<0.001", "description": "The test method was as described in Example 3 except that the mice were pre-exposed to formula milk (Complan®—a nutritionally complete infant milk substitute) for one day, then fasted one day. On the test day, consumption of Complan® was measured for each mouse during a 10 min period.\nMice were tested for appetite suppression by subcutaneous injection of GLP-1(7-36)amide dissolved in phosphate buffered saline."}, "Healthy human volunteers": {"tested_on": "Healthy human volunteers", "test": "Effect of iv infused GLP-1(7-36)amide on food intake, satiety, hunger, fullness and appetite in normal human subjects (double-blind crossover)", "format": "in vivo", "settings": "iv infusion 50 pmol/(kg·h) 9.00-15.00, 20 healthy subjects, versus saline", "description": "Healthy human volunteers (20 subjects) were in a double-blind crossover trial given an iv infusion of 50 pmol/(kg·h) of GLP-1(7-36)amide or saline on separate, but otherwise identical experimental days. The infusion was started at 9.00 and lasted until 15.00. At 9.45 the subjects received a fixed amount of breakfast and at 14.15 they had lunch of an identical composition but ad libitum. The subjects rated their feeling of satiety, hunger, fullness and appetite on a visual analogue scale every half hour. The results are given below:\nThe energy intake of each subjects was measured. The intakes were 3.9 MJ with GLP-1 and 4.3 MJ with Saline resulting in a p-value of 0.009."}}, "note": "No end group written: not given here.", "data": [{"substance": "GLP-1(1-36)amide (HDEFERHAEGTFTSDVSSYLEGQAAKEFIAWLVKGR-NH2; UniProt P01275 92-127, looked up, fragment) [GLP-1 fragment 1-36, C-terminal amide; literature result]", "values": [{"measurement": "Effect on food intake", "setting": "rats", "value": "no effect on food intake"}]}, {"substance": "GLP-1(7-36)amide", "values": [{"measurement": "Suppression of sucrose consumption", "setting": "Mice [1]", "value": 60, "unit": "%"}, {"measurement": "Suppression of feeding (Complan consumption)", "setting": "Mice [2]; 1 mg/kg subcutaneous, 30 min after injection", "value": 45, "unit": "%"}, {"measurement": "Maximum effect, suppression of feeding (Complan consumption)", "setting": "Mice [2]; 20 mg/kg subcutaneous (highest dose tested)", "value": 60, "unit": "%"}]}, {"substance": "GLP-1: literature GLP-1 of b7; b6: proglucagon fragment 72-108 commonly referred to as GLP-1(1-37) or just GLP-1", "values": [{"measurement": "Satiety (visual analogue scale rating)", "setting": "Healthy human volunteers; p = 0.006", "value": "GLP-1 > Saline, p = 0.006"}, {"measurement": "Appetite (visual analogue scale rating)", "setting": "Healthy human volunteers; p = 0.007", "value": "GLP-1 < Saline, p = 0.007"}, {"measurement": "Hunger (visual analogue scale rating)", "setting": "Healthy human volunteers; p = 0.007", "value": "GLP-1 < Saline, p = 0.007"}, {"measurement": "Fullness (visual analogue scale rating)", "setting": "Healthy human volunteers; p = 0.010", "value": "GLP-1 > Saline, p = 0.010"}]}]}
